The results in this text go back to patent US8686147B2, “Compound with serotoninergic activity, process for preparing it and pharmaceutical composition comprising it” (Aziende Chimiche Riunite Angelini Francesco A.C.R.A.F. …, priority 2009, dated 2014).

The target in one data set is T1, 5-HT4 serotonin receptor (Cavia porcellus, UniProt O70528).
T1 construct: The starting materials used were an homogenate of guinea pig striatum; from tissue; host or cells: guinea pig striatum homogenate
The data set can be described thus: Binding to the 5-HT4 serotonin receptor (radioligand binding, homogenate of guinea pig striatum). The note with it: six concentrations, read-out: 5-HT4 (pKi) (converted). The protocol:
Confirmation of the binding to the serotoninergic receptors was performed by means of a biochemical test on purified membranes from recombinant human cells that stably express the specific receptors or from selected animal tissues as described in particular in Grossman C.
(§1) Confirmation of the binding to the serotoninergic receptors was made using purified membranes from selected animal tissues or from recombinant human cells that stably express the specific receptors.
Binding to the 5-HT4 serotonin receptor was performed using standard methods described in: Grossman C. […] The test compounds were tested at six concentrations to obtain the pKi values of the individual compounds.

Data set [1] has as its target T2, human 5-HT2A serotonin receptor (Homo sapiens, UniProt P28223).
T2 construct: expressed in transfected cells
The data set can be described thus: Binding to the human 5-HT2A serotonin receptor. The note with it: human 5-HT2A receptor, six concentrations; for Ki: read-out: 5-HT2 (pKi) (converted). The protocol: Confirmation of the binding to the serotoninergic receptors was performed by means of a biochemical test on purified membranes from recombinant human cells that stably express the specific receptors or from selected animal tissues as described in particular in Grossman C. J. et al. (1993), Br. J. Pharmacol. 109: 618-624, Bonhaus D. W. et al. (1995), Br. J. Pharmacol. 115(4): 622-628; and Saucier C. et al. (1997), J. Neurochem. 68(5): 1998-2011.
as §1
Binding to the human 5-HT2A serotonin receptor was performed via the standard method described in Bonhaus, D. W., Bach C., De Souza A., Salazar F. H., Matsuoka B. D., Zuppan P., Chan H. W., Eglen R. M. (1995): “The pharmacology and distribution of human 5-hydroxytryptamine 2B (5-HT2B) receptor gene products: comparison with 5-HT2A and 5-HT2C receptors.” Br. J. Pharmacol. 115(4): 622-628; and Saucier C., Albert P. R. (1997): “Identification of an endogenous 5-hydroxytryptamine 2A receptor in NIH-3T3 cells: agonist-induced down-regulation involves decreases in receptor RNA and number.” J. Neurochem. 68(5): 1998-2011. The test compounds were tested at six concentrations to obtain the pKi values of the individual compounds.
The values of affinity for the 5-HT4 and 5-HT2A receptor of a number of compounds of formula (I) according to the present invention are given, respectively, in Tables 2 and 3, and expressed as pKi, the value of which is proportionately greater the greater the affinity of the compound for the receptor.

Molecules are shown by their SMILES. Some results are limits rather than exact numbers.

T1 sequence (O70528 whole entry): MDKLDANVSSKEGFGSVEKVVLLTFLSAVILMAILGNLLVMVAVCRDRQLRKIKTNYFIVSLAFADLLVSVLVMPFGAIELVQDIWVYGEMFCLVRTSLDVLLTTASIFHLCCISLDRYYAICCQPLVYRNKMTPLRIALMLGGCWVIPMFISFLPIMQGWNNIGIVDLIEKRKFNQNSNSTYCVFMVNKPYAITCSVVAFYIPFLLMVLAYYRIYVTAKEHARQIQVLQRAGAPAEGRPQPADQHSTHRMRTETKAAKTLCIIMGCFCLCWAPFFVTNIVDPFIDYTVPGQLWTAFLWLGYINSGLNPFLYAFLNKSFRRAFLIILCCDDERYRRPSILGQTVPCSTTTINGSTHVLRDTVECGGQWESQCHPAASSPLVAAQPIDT
T2 sequence (P28223 whole entry): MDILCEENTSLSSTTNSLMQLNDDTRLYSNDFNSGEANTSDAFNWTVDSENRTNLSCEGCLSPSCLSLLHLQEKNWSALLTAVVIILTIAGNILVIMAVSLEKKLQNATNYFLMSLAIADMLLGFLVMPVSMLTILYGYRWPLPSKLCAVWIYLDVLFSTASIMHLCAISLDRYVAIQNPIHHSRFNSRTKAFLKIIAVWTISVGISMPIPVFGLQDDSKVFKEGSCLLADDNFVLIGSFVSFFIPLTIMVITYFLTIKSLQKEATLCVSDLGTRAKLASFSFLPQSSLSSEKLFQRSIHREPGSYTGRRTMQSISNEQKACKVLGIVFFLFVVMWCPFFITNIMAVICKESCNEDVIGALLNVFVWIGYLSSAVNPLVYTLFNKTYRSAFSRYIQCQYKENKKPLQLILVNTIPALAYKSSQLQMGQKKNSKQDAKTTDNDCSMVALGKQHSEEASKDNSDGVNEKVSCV

With `Cl.Cn1cc2c(OCC3CCN(CC(=O)Nc4ccccc4)CC3)nc3ccccc3c2c1`, the melting point was in the range of 163 to 165 °C.

As for `CCCCN1CCC(COc2nc3ccccc3c3cn(C)cc23)CC1` [Compound 3, 4-[(1-Butylpiperid-4-yl)methyloxy]-2-methyl-2H-pyrrolo[3,4-c]quinoline], the figures for the Ki (at 5-HT4 serotonin receptor; in data set [1]) were 14.8 nM and above 1000 nM, respectively. For the compound `Cn1cc2c(OCC3CCN(CCc4ccccc4)CC3)nc3ccccc3c2c1` [Compound 4, 4-{[1-(2-Phenyl)ethylpiperidine-4-yl]methoxy}-2-methyl-2H-pyrrolo[3,4-c]quinoline], the Ki on 5-HT4 serotonin receptor was 1.86 nM. Still for that read-out and setting: then `CC(C)n1cc2c(OCC3CCN(CCc4ccccc4)CC3)nc3ccccc3c2c1` [Compound 5, 4-{[1-(2-Phenyl)ethylpiperid-4-yl]methoxy}-2-isopropyl-2H-pyrrolo[3,4-c]quinoline], with 138 nM; and `Cn1cc2c(OCC3CCN(CC(=O)Nc4ccccc4)CC3)nc3ccccc3c2c1` [Compound 6, N-Phenyl-2-{4-[2-methyl-2H-pyrrolo[3,4-c]quinolin-4-yloxy-methyl]piperid-1-yl}acetamide], with 132 nM.

For the compound `Cl.Cn1cc2c(OCC3CCN(CCN4CCOCC4)CC3)nc3ccccc3c2c1` [Compound 9a, 4-{[1-(2-(4-Morpholinyl)ethyl)piperid-4-yl]methyloxy}-2-methyl-2H-pyrrolo[3,4-c]quinoline hydrochloride], the melting point is 190 to 192 °C. In addition, at 5-HT4 serotonin receptor, the Ki was 2.29 nM. For the same compound, the Ki in data set [1] was above 10000 nM. In the case of `Cl.Cn1cc2c(OCC3CCN(CCc4ccc(N)cc4)CC3)nc3ccccc3c2c1` [Compound 11a, 4-[(1-(4-Aminophenylethyl)piperid-4-yl)methyloxy]-2-methyl-2H-pyrrolo[3,4-c]quinoline hydrochloride], the melting point lay within 165 to 167 °C. For the same compound, the Ki on 5-HT4 serotonin receptor was 4.57 nM. For the same compound, the “5-HT2 (pKi)” value in data set [1] is on record as 6.6. As for `Cn1cc2c(OCC3CCN(CCc4ccc(C(=O)O)cc4)CC3)nc3ccccc3c2c1` [Compound 12a], the results for the Ki (at 5-HT4 serotonin receptor; in data set [1]) were 2.24 nM and above 10000 nM, respectively. Taken in the same sequence, the figures for `CC(=O)Nc1ccc(CCN2CCC(COc3nc4ccccc4c4cn(C)cc34)CC2)cc1` [Compound 13, 4-[(1-(4-Acetamidophenylethyl)piperid-4-yl)methyloxy]-2-methyl-2H-pyrrolo[3,4-c]quinoline] were 1.86 nM and above 1000 nM. In the case of `COCc1ccc(CCN2CCC(COc3nc4ccccc4c4cn(C)cc34)CC2)cc1` [Compound 16, 4-[(1-(4-Methoxymethylphenylethyl)piperid-4-yl)methyloxy]-2-methyl-2H-pyrrolo[3,4-c]quinoline], on 5-HT4 serotonin receptor, the Ki was 19.1 nM.
